Drawing on patent publication US5521170A, “Benzamide derivatives and pharmaceutical composition comprising the same” (Fujisawa Pharmaceutical Co., Ltd., priority 1993, dated 1996), this text covers IC50 for eight compounds.

For one test, the target named is T1, Vasopressin 1 (Vl) receptor (Rattus norvegicus, UniProt P30560).
T1 construct: The rat liver was dissected and homogenized; from tissue; host or cells: rat liver membranes
T1 sequence (P30560 whole entry): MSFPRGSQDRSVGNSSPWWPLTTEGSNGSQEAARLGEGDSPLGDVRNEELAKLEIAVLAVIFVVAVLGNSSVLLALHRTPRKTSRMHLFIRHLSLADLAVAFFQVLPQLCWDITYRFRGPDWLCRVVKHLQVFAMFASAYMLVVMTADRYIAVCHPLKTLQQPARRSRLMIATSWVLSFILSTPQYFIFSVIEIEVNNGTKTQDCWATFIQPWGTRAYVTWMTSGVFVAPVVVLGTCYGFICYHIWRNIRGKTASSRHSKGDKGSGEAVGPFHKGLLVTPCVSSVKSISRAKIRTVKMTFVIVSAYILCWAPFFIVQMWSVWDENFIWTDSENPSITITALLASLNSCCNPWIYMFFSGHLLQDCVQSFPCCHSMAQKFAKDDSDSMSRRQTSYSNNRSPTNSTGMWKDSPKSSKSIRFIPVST
Kind of test: Vasopressin 1 (Vl) receptor binding. The conditions noted are these: rat liver membrane; 0.5 nM ^3H-vasopressin; 60 minutes at 25° C.; pH 7.4. The protocol:
Vasopressin 1 (Vl) receptor binding
The rat liver was dissected and homogenized in 10 volume of ice cold 250 mM sucrose buffer containing 25 mM Tris-HCl (pH 7.4), 5 mM MgCl2 and 0.1 mM phenylmethylsulfonyl fluoride (PMSF). The homogenate was centrifuged at 1000 xg for 10 minutes. The supernatant fraction was separated and centrifuged at 45,000 xg for 30 minutes. The remaining pellet was resuspended in 10 volume of ice cold 100 mM Tris-HCl (pH 7.4) buffer (containing 5 mM MgCl2, 0.1% bovine serum albumin and 0.1 mM PMSF), and centrifuged at 45,000 xg for 30 minutes again. The final pellet was resuspended in 100 mM Tris-HCl buffer. The resulting membrane preparation was used immediately for the binding assay.
Competition assays were conducted at equilibrium (60 minutes at 25° C.) by using 0.5 nM ^3 H-vasopressin ([phenylalanyl-3,4,5-^3 H]-vasopression; 40-87 Ci/mmol; New England Nuclear) in 100 mM Tris-HCl (pH 7.4) buffer. Nonspecific binding was determined by using 1 μM [d(CH2)5, Tyr^2 (Me), Arg^8 ]-vasopressin (Peptide institute, Japan). After incubation, reaction was terminated by adding 5 ml of ice-cold 100 mM Tris-HCl (pH 7.4) buffer, and then filtered rapidly through Whatman glass filter (GF/C). […] The glass filter was mixed with liquid scintilation cocktail, and radioactivity was counted in a liquid scintilation counter (TRI-CARB 4530, Packard). […]
Turning to `Cc1ccc(-c2ccccc2C(=O)Nc2ccc(C(=O)N3CCCCc4ccccc43)cc2)cc1` [2-2), 1-{4-[2-(4-Methylphenyl)benzoylamino]benzoyl}-2,3,4,5-tetrahydro-1H-benzazepine], the IC50 (as a rule, the concentration at which inhibition is half-maximal) is 3.9 nM.
`Cc1ccccc1-c1ccccc1C(=O)Nc1ccc(C(=O)N2CCCC(N(C)C)c3ccccc32)cc1` (centres unmarked) [2-21), 5-Dimethylamino-1-{4-[2-(2-methylphenyl)benzoylamino]benzoyl}-2,3,4,5-tetrahydro-1H-benzazepine] showed an IC50 of 4.4 nM. The IC50 values of the last two compounds are within 1.5-fold of each other.

For a further test, the target named is T2, Vasopressin 2 (V2) receptor (Rattus norvegicus, UniProt Q00788).
T2 construct: The medullopapillary region of male rat kidey was dissected; from tissue; host or cells: male rat kidney medullopapillary membranes
T2 sequence (Q00788 whole entry): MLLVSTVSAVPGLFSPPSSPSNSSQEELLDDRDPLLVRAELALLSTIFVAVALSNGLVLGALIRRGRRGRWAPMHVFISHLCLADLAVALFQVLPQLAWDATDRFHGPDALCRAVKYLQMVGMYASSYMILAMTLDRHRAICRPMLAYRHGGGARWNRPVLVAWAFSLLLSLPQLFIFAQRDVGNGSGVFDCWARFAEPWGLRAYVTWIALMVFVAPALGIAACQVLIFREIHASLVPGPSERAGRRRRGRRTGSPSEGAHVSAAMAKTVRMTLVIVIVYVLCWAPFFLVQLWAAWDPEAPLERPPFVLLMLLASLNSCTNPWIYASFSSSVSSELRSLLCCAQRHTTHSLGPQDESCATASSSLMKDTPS
Kind of test: Vasopressin 2 (V2) receptor binding. The conditions noted are these: male rat kidney medullopapillary membrane; 0.5 nM ^3H-vasopressin; 2 hours at 25° C.; pH 7.4. The protocol:
Vasopressin 2 (V2) receptor binding
The medullopapillary region of male rat kidey was dissected and homogenized in 10 volume of ice cold 250 mM sucrose buffer containing 25 mM Tris-HCl (pH 7.4), 5 mM MgCl2 and 0.1 mM phenylmethylsulfonyl fluoride (PMSF). The homogenate was centrifuged at 500 xg for 5 minutes. The supernatant fraction was separated and centrifuged at 45,000 xg for 30 minutes. The remaining pellet was resuspended in 10 volume of ice cold 100 mM Tris-HCl (pH 7.4) buffer (containing 5 mM MgCl2, 0.1% bovine serum albumin and 0.1 mM PMSF), and centrifuged at 45,000 xg for 30 minutes again. The final pellet was resuspended in 100 mM Tris-HCl buffer. The resulting membrane preparation was used immediately for the binding assay.
Competition assays were conducted at equilibrium (2 hours at. 25° C.) by using 0.5 nM ^3 H-vasopression ([phenylalanyl-3,4,5-3H]-vasopression; 40-87 Ci/mmol; New England Nuclear) in 100 mM Tris-HCl (pH 7.4) buffer. Nonspecific binding was determined by using 1 μM [d(CH2)5, D-Ile^2 Ile^4 Arg8]-vasopressin (Peninsula Laboratories USA). After incubation, reaction was terminated by adding 5 ml of ice-cold 100 mM Tris-HCl (pH 7.4) buffer, and then filtered rapidly through Whatman glass filter (GF/C). The filter was washed 2 times with the same buffer (5 ml). The glass filter was mixed with liquid scintilation cocktail, and radioactivity was counted in a liquid scintilation counter (TRI-CARB 4530, Packard). Competition activity of the test compound was represented by IC50 values.
For `Cc1ccc(-c2ccccc2C(=O)Nc2ccc(C(=O)N3CC(=O)Nc4ccccc43)cc2)cc1` [2-4), 1-{4-[2-(4-Methylphenyl)benzoylamino]benzoyl}-1,2,3,4-tetrahydroquinoxalin-3-one], the IC50 stood at 3 nM.
`Cc1ccc(-c2ccccc2C(=O)Nc2ccc(C(=O)N3CCC(=O)N(CC(=O)N4CCN(C)CC4)c4ccccc43)cc2)c(C)c1` [16-3), 5-{4-[2-(2,4-Dimethylphenyl)benzoylamino]benzoyl}-1-[(4-methyl-1-piperazinyl)carbonylmethyl]-1,3,4,5-tetrahydro-1,5-benzodiazepin-2 (2H)-one] yielded an IC50 of 2.3 nM.
In turn, `Cc1ccc(-c2ccccc2C(=O)Nc2ccc(C(=O)N3CCC(=O)N(CC(=O)N4CCN(C)CC4)c4cc(Cl)ccc43)cc2)cc1` [16-9), 8-Chloro-5-{4-[2-(4-methylphenyl)benzoylamino]benzoyl}-1-[(4-methyl-1-piperazinyl)carbonylmethyl]-1,3,4,5-tetrahydro-1,5-benzodiazepin-2(2H)-one] had a half-inhibitory concentration (IC50) of 3.3 nM.
Compound `Cc1ccc(-c2ccccc2C(=O)Nc2ccc(C(=O)N3CCC(=O)N(CC(=O)N4CCN(C)CC4)c4cc(C)ccc43)cc2)cc1` [16-14), 8-Methyl-5-{4-[2-(4-methylphenyl)benzoylamino]benzoyl}-1-[(4-methyl-1-piperazinyl)carbonylmethyl]1,3,4,5-tetrahydro-1,5-benzodiazepin-2(2H)-one] returned an IC50 of 2.7 nM.
With `Cc1ccc(-c2ccccc2C(=O)Nc2ccc(C(=O)N3CCCC(CC(=O)N4CCN(C)CC4)c4ccccc43)cc2)cc1` (centres unmarked) [16-69), 1-{4-[2-(4-Methylphenyl)benzoylamino]benzoyl}-5-(4-methyl-1-piperazinylcarbonyl)methyl-2,3,4,5-tetrahydro-1H-1-benzazepine], the IC50 was determined as 5.1 nM.
Turning to `Cc1ccc(-c2ccccc2C(=O)Nc2ccc(C(=O)N3CCC(=O)N(CC(=O)N4CCN(C)CC4)c4ccccc43)cc2)cc1` [Example 15, 5-{4-[2-(4-methylphenyl)benzoylamino]benzoyl}-1-[(4-methyl-1-piperazinyl)carbonylmethyl]-1,3,4,5-tetrahydro-1,5-benzodiazepin-2(2H)-one], the IC50 worked out at 1.8 nM.
